# In patent US9801908B2, “Treatment for chitin-containing microorganisms” (BENCHMARK ANIMAL HEALTH LIMITED, priority 2013, dated 2017):
# Like-named read-outs stand apart in the source and are kept apart here.
# Assays:
# [1] = test system: Saprolegnia spores and zoosporangia
# Description: At indicated time points BA was replaced with SAW. The ability of treated spores to germinate and colonize sesame seeds was recorded 24 h following the treatment removal. Treated zoosporangia were also examined for their ability to release spore. Spores and zoosporangia in SAW were used as a non-treated control. Results were confirmed with fluorescent microscopy using SYTO 9 dye (Invitrogen®) 5 mM solution in DMSO.
# Saprolegnia spores [2] = test: Germination and colonization of Saprolegnia spores on sesame seeds; type: cell-based, Saprolegnia parasitica; set-up: key to grade of germination and colonization of Saprolegnia spores on sesame seeds: Grade 0: no germination no growing mycelia on the sesame seeds; Grade 1: germinating spores no growing mycelia on the sesame seeds; Grade 2: germinating spores very few growing mycelia on the sesame seeds; Grade 3: germinating spores profuse growing mycelia on the sesame seeds; conditions: for grade of germination and colonization of Saprolegnia spores on sesame seeds: 48 hours incubation
# Description: BA was diluted to desired concentration in Sterilized Aquarium Water (SAW). […] Saprolegnia zoospores were produced according to the method described previously by Stueland et al. […] Sterilized aquarium water (SAW) was used as a non-treated control and bronopol (Pyceze Vet.® 500 g bronopol/L) was used as a positive control. Each BA concentration and controls were tested in triplicates and incubated at 20° C. 24 hours later, plates were examined microscopically.
# Saprolegnia spores [3] = conditions: BA 0.5 g/L continuous, yolk sac fry, natural outbreak
# Description: The safety of continuous exposure of salmon fry to a low concentration of BA (0.5 g/L) was also investigated to understand what extent BA will protect Atlantic salmon fry from becoming infected by Saprolegnia spores during a natural outbreak of saprolegniosis in the aquarium.
# [4] = test system: Saprolegnia spores (S. diclina VIO 2739, S. parasitica VIO 2741, aquarium water); conditions: BA 1-4 g/L, 4 hours/day, 14 days
# Description: The ability of BA to protect dead eggs from becoming infected with Saprolegnia spores was investigated. The rationale is that dead eggs may be the first to get infected under natural conditions and act as a source of infection for live eggs. Combined treatment of BA and PA was also tested.
# Five egg groups were used, each group divided equally into 3 smaller sub-groups. 25 live eggs plus 5 dead ones were placed in each of the sub-groups (90 eggs per group). […] In the groups, eggs were supplied with continuous slow water flow of 1 L/min. The aquarium water at the facilities of the Norwegian Veterinary Institute/Norwegian School of Veterinary Science contains Saprolegnia zoospores and was used as source of infection. […] Treatment with BA was carried out as follows. The water flow was stopped and each group, except the non-treated control group, was treated with BA at concentrations of 1, 2, 3, and 4 g/L. The treatment period was 4 hours/day after which water flow was resumed. Dead eggs were inspected daily over 14 days for their colonization with Saprolegnia spores and the presence of growing hypha. Number of dead eggs per group and hatching rates were recorded.
# [5] = test system: Atlantic salmon eyed eggs; conditions: in vivo
# Saprolegnia sp. = conditions: 4 h once a day
# Description: The experimental design was as described in experiment 1 with the same number of eggs per replicate (N=27±2) and the number of infected eggs introduced per replicate (3 per 27 eggs). The difference was that the eggs were exposed to higher BA concentrations (1, 2, 3, 4 g/L) for 4 h once a day over the course of the experiment which lasted for 14 days in total. After 4 h of treatment the flow of aquarium water was resumed. The same treatment was applied 24 h later and every day up to 14 days. The time between treatments was the same throughout the experiment. The number of dead eggs, presence or absence of infection and hatching rates were recorded over the duration of the experiment.
# Infected dead eggs that were used as source of infection in the BA treated groups and the non-treated control were examined microscopically to observe the effect of BA treatment on the growing mycelia.
# [6] = test system: Saprolegnia hyphae/mycelium
# Description: The plates were observed microscopically to confirm the attachment of the spores to the sesame seeds and the presence of the early growing mycelia. BA was added at 12 h post infection of the sesame seeds at the same concentrations mentioned above to all tested plates except controls. Plates were incubated further at 20° C. SAW was used as non-treated control and bronopol as positive control. Plates were inspected microscopically after 24 h for advanced mycelial growth.
# [7] = treated 96 h in BA, then 24 h in SAW
compound,measurement,setting,value
OB(O)O [boric acid],production and release of zoospores from young zoosporangia,"Saprolegnia zoosporangia; 1 g/L BA, 12 and 24 h",interferes with the production and subsequent release of zoospores
same,sign observed in zoosporangia after treatment,"Saprolegnia zoosporangia; 1 g/L BA, 12 and 24 h",Vacuolation of the entire of zoosporangia
same,spore production and release from zoosporangia (FIG. 2 b2),Saprolegnia zoosporangia; 24 hours exposure to boric acid,absence of spore production and release
same,spore release of zoosporangia 24 h after exposure terminated,[1]; BA 1 g/L for 12 h,showed spore release
same,spore release of zoosporangia 24 h after exposure terminated,[1]; BA 1 g/L for 24 h,showed spore release
same,spore release of zoosporangia after exposure terminated,[1]; BA 1 g/L for 72 h,no spore release
same,spore release of zoosporangia after exposure terminated,[1]; BA 1 g/L for 96 h,no spore release
same,colonization of seeds (FIG. 3c-1),"[1]; treated 24 h with BA, then 24 h in SAW",Thin hyphae can be seen projecting out from seeds
same,appearance of zoosporangium (FIG. 3d-2),[1]; [7],condensed staining and a thin wall
same,colonization of seeds (FIG. 3d),[1]; [7],no colonization on seeds
same,grade of germination and colonization of Saprolegnia spores on sesame seeds,"Saprolegnia spores [2]; ""boric acid g/L"" (concentration not given)",Grade 0
same,germination of inoculated Saprolegnia spores,Saprolegnia spores [2]; BA 1 g/L and above,did not germinate
same,germination and colonization of sesame seeds by Saprolegnia spores,Saprolegnia spores [2]; BA below 0.2 g/L,germinated and colonized sesame seeds
same,growth rate compared to the non-treated control,Saprolegnia spores [2]; BA below 0.2 g/L,slow
same,grade of germination and colonization of Saprolegnia spores on sesame seeds,Saprolegnia spores [2]; boric acid 0.2-0.4 g/L,Grade 2
same,grade of germination and colonization of Saprolegnia spores on sesame seeds,Saprolegnia spores [2]; boric acid 0.5-0.9 g/L,Grade 1
same,grade of germination and colonization of Saprolegnia spores on sesame seeds,Saprolegnia spores [2]; boric acid <0.2 g/L,Grade 3
same,fry mortality rates compared to non-treated control,Saprolegnia spores [3],Significant reduction
same,attachment between dead and live eggs,[4],no attachment
same,hyphal growth on dead eggs,[4],No hyphal growth
same,impact on hatchability and viability of eggs or fry,[5],no negative impact
same,hyphal attachment between infected dead and live eggs,"Saprolegnia sp.; BA 1, 2, 3 or 4 g/L, 14 days",No hyphal attachment
same,mycelium on dead eggs used as source of infection,"Saprolegnia sp.; all treated groups, BA 1-4 g/L",scanty attachment of mycelium
same,hyphael growth grade,[6]; BA 0.5 g/L and below,grade 1
same,mycelia growth,[6]; BA above 0.5 g/L,no further growth
"O=[N+]([O-])C(Br)(CO)CO [bronopol, reference compound]",grade of germination and colonization of Saprolegnia spores on sesame seeds,Saprolegnia spores [2]; positive control (Pyceze Vet. 500 g bronopol/L),Grade 0
same,mortality of eggs,"[5]; Atlantic salmon, 2 h",100%
